From patent publication US11477982B2, “2-amino-5-oxyalkyl-pyrimidine derivatives and their use for controlling undesired plant growth” (Bayer CropScience Aktiengesellschaft, priority 2017, dated 2022)

Legend:
Type in all cases: in vivo
[1] = tested on: SETVI: Setaria viridis; test: Post-emergence herbicidal effect
How it was run: (§1)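 Foliar post-emergence spray on one-leaf-stage plants raised in sandy loam in the greenhouse, using WP or EC formulations with 0.5% additive at a water rate of 600 l/ha; effect judged visually about 3 weeks on, 0% to 100% relative to untreated plants.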

[2] = tested on: ALOMY: Alopecurus myosuroides; test: Post-emergence herbicidal effect
How it was run: as §1

[3] = tested on: PHBPU: Ipomoea purpurea; test: Post-emergence herbicidal effect
How it was run: as §1

[4] = tested on: POLCO: Polygonum convolvulus; test: Post-emergence herbicidal effect
How it was run: as §1

[5] = tested on: LOLRI: Lolium rigidum; test: Post-emergence herbicidal effect
How it was run: as §1

[6] = tested on: HORMU: Hordeum murinum; test: Post-emergence herbicidal effect
How it was run: as §1

[7] = tested on: ABUTH: Abutilon theophrasti; test: Post-emergence herbicidal effect
How it was run: as §1

[8] = tested on: ECHCG: Echinochloa crus-galli; test: Post-emergence herbicidal effect
How it was run: as §1

[9] = tested on: AMARE: Amaranthus retroflexus; test: Pre-emergence herbicidal effect; settings: pre-emergence
How it was run: (§2)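 Compounds applied before emergence onto soil over sown seeds (WP or EC, 0.5% additive, 600 l/ha water); greenhouse culture about 3 weeks, then percent activity judged by eye against untreated plants.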

[10] = tested on: SETVI: Setaria viridis; test: Pre-emergence herbicidal effect; settings: pre-emergence
How it was run: as §2

[11] = tested on: AVEFA: Avena fatua; test: Pre-emergence herbicidal effect
How it was run: as §2

[12] = tested on: STEME: Stellaria media; test: Pre-emergence herbicidal effect; settings: pre-emergence; dosage 320 g/ha
How it was run: as §2

[13] = tested on: ALOMY: Alopecurus myosuroides; test: Pre-emergence herbicidal effect; settings: pre-emergence
How it was run: as §2

[14] = tested on: VIOTR: Viola tricolor; test: Pre-emergence herbicidal effect; settings: dosage 320 g/ha
How it was run: as §2

[15] = tested on: VERPE: Veronica persica; test: Pre-emergence herbicidal effect; settings: dosage 320 g/ha
How it was run: as §2

[16] = tested on: PHBPU: Ipomoea purpurea; test: Pre-emergence herbicidal effect
How it was run: as §2

[17] = tested on: POLCO: Polygonum convolvulus; test: Pre-emergence herbicidal effect
How it was run: as §2

[18] = tested on: LOLRI: Lolium rigidum; test: Pre-emergence herbicidal effect
How it was run: as §2

[19] = tested on: MATIN: Matricaria inodora; test: Pre-emergence herbicidal effect; settings: pre-emergence; dosage 320 g/ha
How it was run: as §2

[20] = tested on: HORMU: Hordeum murinum; test: Pre-emergence herbicidal effect; settings: pre-emergence
How it was run: as §2

[21] = tested on: CYPES; test: Pre-emergence herbicidal effect
How it was run: as §2

[22] = tested on: ABUTH: Abutilon theophrasti; test: Pre-emergence herbicidal effect
How it was run: as §2

[23] = tested on: ECHCG: Echinochloa crus-galli; test: Pre-emergence herbicidal effect; settings: pre-emergence
How it was run: as §2

[24] = tested on: AMARE: Amaranthus retroflexus; test: Post-emergence herbicidal effect; settings: dosage 320 g/ha
How it was run: as §1

[25] = tested on: AVEFA: Avena fatua; test: Post-emergence herbicidal effect
How it was run: as §1

[26] = tested on: STEME: Stellaria media; test: Post-emergence herbicidal effect
How it was run: as §1

[27] = tested on: VIOTR: Viola tricolor; test: Post-emergence herbicidal effect; settings: dosage 80 g/ha
How it was run: as §1

[28] = tested on: MATIN: Matricaria inodora; test: Post-emergence herbicidal effect
How it was run: as §1

## Cc1ccc2c(c1)[C@H](Nc1ncc([C@H](C)O)c(N)n1)[C@@H](C)C2 (racemic) [drawing 14, reference compound]
[1]; dosage 80 g/ha
  Herbicidal action against SETVI: 60%
[2]; dosage 80 g/ha
  Herbicidal action against ALOMY: 0%
[2]; dosage 320 g/ha
  Herbicidal action against ALOMY: 70%
[3]; dosage 80 g/ha
  Herbicidal action against PHBPU: 20%
[3]; dosage 320 g/ha
  Herbicidal action against PHBPU: 80%
[4]; dosage 80 g/ha
  Herbicidal action against POLCO: 60%
[4]; dosage 320 g/ha
  Herbicidal action against POLCO: 60%
[5]; dosage 80 g/ha
  Herbicidal action against LOLRI: 30%
[5]; dosage 320 g/ha
  Herbicidal action against LOLRI: 70%
[6]; dosage 80 g/ha
  Herbicidal action against HORMU: 0%
[6]; dosage 320 g/ha
  Herbicidal action against HORMU: 20%
[7]; dosage 80 g/ha
  Herbicidal action against ABUTH: 10%
[7]; dosage 320 g/ha
  Herbicidal action against ABUTH: 60%
[8]; dosage 80 g/ha
  Herbicidal action against ECHCG: 0%

## Cc1ccc2c(c1)[C@H](Nc1ncc(C(C)(C)O)cn1)[C@@H](C)C2 [Example 1.4]
[9]; dosage 80 g/ha
  Herbicidal action against AMARE: 100%
[9]; dosage 320 g/ha
  Herbicidal action against AMARE: 100%
[10]; dosage 80 g/ha
  Herbicidal action against SETVI: 100%
[10]; dosage 320 g/ha
  Herbicidal action against SETVI: 100%
[11]; dosage 80 g/ha
  Herbicidal action against AVEFA: 80%
[11]; dosage 320 g/ha
  Herbicidal action against AVEFA: 100%
[12]
  Herbicidal action against STEME: 100%
[13]; dosage 80 g/ha
  Herbicidal action against ALOMY: 90%
[13]; dosage 320 g/ha
  Herbicidal action against ALOMY: 100%
[14]
  Herbicidal action against VIOTR: 100%
[15]
  Herbicidal action against VERPE: 100%
[16]; dosage 80 g/ha
  Herbicidal action against PHBPU: 80%
[16]; dosage 320 g/ha
  Herbicidal action against PHBPU: 100%
[17]; dosage 80 g/ha
  Herbicidal action against POLCO: 100%
[17]; dosage 320 g/ha
  Herbicidal action against POLCO: 100%
[18]; dosage 80 g/ha
  Herbicidal action against LOLRI: 100%
[18]; dosage 320 g/ha
  Herbicidal action against LOLRI: 100%
[19]
  Herbicidal action against MATIN: 100%
[20]; dosage 80 g/ha
  Herbicidal action against HORMU: 90%
[20]; dosage 320 g/ha
  Herbicidal action against HORMU: 100%
[21]; dosage 80 g/ha
  Herbicidal action against CYPES: 80%
[21]; dosage 320 g/ha
  Herbicidal action against CYPES: 100%
[22]; dosage 80 g/ha
  Herbicidal action against ABUTH: 100%
[22]; dosage 320 g/ha
  Herbicidal action against ABUTH: 100%
[23]; dosage 80 g/ha
  Herbicidal action against ECHCG: 100%
[23]; dosage 320 g/ha
  Herbicidal action against ECHCG: 100%
[24]
  Herbicidal action against AMARE: 100%
[1]; dosage 320 g/ha
  Herbicidal action against SETVI: 80%
[25]; dosage 80 g/ha
  Herbicidal action against AVEFA: 20%
[25]; dosage 320 g/ha
  Herbicidal action against AVEFA: 50%
[26]; dosage 80 g/ha
  Herbicidal action against STEME: 60%
[26]; dosage 320 g/ha
  Herbicidal action against STEME: 90%
[2]; dosage 80 g/ha
  Herbicidal action against ALOMY: 20%
[2]; dosage 320 g/ha
  Herbicidal action against ALOMY: 70%
[27]
  Herbicidal action against VIOTR: 90%
[3]; dosage 320 g/ha
  Herbicidal action against PHBPU: 100%
[4]; dosage 80 g/ha
  Herbicidal action against POLCO: 70%
[4]; dosage 320 g/ha
  Herbicidal action against POLCO: 90%
[5]; dosage 80 g/ha
  Herbicidal action against LOLRI: 60%
[5]; dosage 320 g/ha
  Herbicidal action against LOLRI: 90%
[28]; dosage 80 g/ha
  Herbicidal action against MATIN: 40%
[28]; dosage 320 g/ha
  Herbicidal action against MATIN: 80%
[7]; dosage 80 g/ha
  Herbicidal action against ABUTH: 60%
[7]; dosage 320 g/ha
  Herbicidal action against ABUTH: 90%
[8]; dosage 80 g/ha
  Herbicidal action against ECHCG: 30%
[8]; dosage 320 g/ha
  Herbicidal action against ECHCG: 90%
